These results are taken from patent US20240277632A1, “Epinephrine Pharmaceutical Formulations for Intranasal Delivery” (priority 2020, published 2024).

The conditions of series [1]: aqueous epinephrine by the IN route, no enhancer; cited from earlier work.
Series [2] in a line: in vivo. The following applies: rat, in vivo. The protocol: (§1) Each rat was treated with two (2) IN administrations of the respective formulations in Groups A1-A5.
(§2) The analysis of clinical pathology was conducted by a qualified veterinary laboratory (Quality Veterinary Laboratory (QVL), Davis, California, USA).
(§3) Histopathological evaluation was conducted by a qualified pathology laboratory (Experimental Pathology Laboratories, Inc. (EPL), Sterling, Virginia, USA). […] EPL's histopathological findings were graded from 1 to 5, with 1 as minimal, and 5 as severe, depending upon severity.

Series [3] deals with rats. Put plainly: in vivo. The conditions noted are these: rats. The protocol:
as §1, §2, §3

For series [4] the following is noted: human; cohort 1 (T2, T4a, Ra).
For series [5], the system named is nasal mucosa of rats. Put plainly: Local toxicity study of STCDC, histopathology of nasal mucosa (Example 5). In kind it is in vivo. The conditions noted are these: rat; after exposure to STCDC and epinephrine. The protocol:
Example 5 is an animal study designed to investigate the possible histological effects of bile salts (STCDC) on nasal mucosa of rats when the bile salt is used as an absorption enhancer for IN delivery. […] These IN formulations were administered intranasally to the rats. The histopathology of the rat's nasal tissue was examined to evaluate nasal mucosa tolerance to these tested IN formulations.
In Table 5.1, Group Nos. 2-6 each had excipients of about 8.5 mg/mL sodium chloride, about 3.84 mg/mL citric acid, about 1.5 mg/mL sodium metabisulfite, about 2.3 mg/mL HCl (10% w/v), and a pH adjustor (NaOH) as needed to adjust the pH to 3.6. […]
In total, EPL assessed 48 types of microscopic findings in nasal turbinate cavity level I through IV, as detailed in Table 5.3. […]
In order to quantitatively analyze the data for histopathological findings, the three (3) quantities, (i) total observation point (TOP), denoted as TOP, (ii) Average TOP per item per rat, and (iii) average occurrence for Level i (AOL)-i (i=1-5) were analyzed.
where m1, m2, m3, m4, and m5 are number of findings with Level 1, 2, 3, 4, 5, respectively, from the 48 microscopic histopathological items (as detailed in Table 5.3) assessed by EPL, n is the number of rats examined.

Where only a bound is given, the exact number is not on record here.

`CNCC(O)c1ccc(O)c(O)c1` (single isomer, unassigned; (-)) [epinephrine, (-)-3,4-Dihy droxy-α-[(methyl-amino)methyl]benzyl alcohol]: in series [1], the “bioavailability (BA) based on AUC in plasma concentration, IN relative to same dose by IM route” value is given as “approximately 5%”.

Usually NOAEL stands for the highest dose or exposure tested at which no adverse effect was seen. On to `C[C@H](CCC(=O)NCCS(=O)(=O)[O-])[C@H]1CC[C@H]2[C@@H]3[C@H](O)C[C@@H]4C[C@H](O)CC[C@]4(C)[C@H]3C[C@H](O)[C@]12C.[Na+]` [STC, sodium taurocholate], for which the no-observed-adverse-effect level (NOAEL) in series [2] is at least 2.5 mg/kg. The “NOAEL for bile salt (STC) at an IN delivery, relative dose” value in series [3] (15 mg/mL x 0.025 mL x 2, body weight 0.298 kg) came out at 2.5 mg/kg. Also, in series [3] (IN administration, highest studied concentration), the “NOAEL for the bile salt (STC), concentration” value was “exceeding 15 mg/mL”. The “baseline level of plasma STC” value in series [4] is reported as “approximately 20 pg/mL”.

As for `C[C@H](CCC(=O)NCCS(=O)(=O)[O-])[C@H]1CC[C@H]2C3[C@H](O)C[C@@H]4C[C@H](O)CC[C@]4(C)[C@H]3CC[C@]12C.[Na+]` (stereo partly drawn) [STCDC, sodium taurochenodeoxycholate], in series [5], the “course of observed nasal toxicity items over time (average TOP, FIG. 6D)” value was “nearly normal at two weeks post-dose”.
